Legend:
[1] = tested on: human endometrial cancer cell line HEC-108 xenograft; test: HEC-108 endometrial cancer xenograft as monotherapy (FIG. 18); type: in vivo, athymic mice; conditions: 180 μg/kg i.v. Day 1 and Day 8
Protocol: A human endometrial cancer cell line HEC-108, which had been cultured in an E-MEM containing 15% FBS and antibiotics were adjusted to a concentration of 7.14×10^7 cells/mL with medium to prepare a cell suspension. The cell suspension was inoculated in a volume of 150 μL into a subcutaneous part of a right flank of athymic mice (CAnN.Cg-Foxnlnu/CrlCrlj, female, 6 weeks old, Charles River Japan Inc.). Thirteen days after cell inoculation (Day 1), the length and the width of a tumor in each mouse were measured by using an electronic digital caliper (Mitutoyo Corporation), so as to calculate the volume of the tumor in accordance with the following calculation formula: […]
On the basis of TV, the mice were randomly grouped (Day 1). Each group was consisted in six mice. Compound (1) was dissolved in DMSO and a solution was stored in the freezer before use. Compound (1) (180 μg/kg) was diluted in saline and intravenously injected on Day 1 and Day 8.

[2] = tested on: human bladder carcinoma cell line UM-UC-3; test: Bladder carcinoma cell line growth inhibition assay, UM-UC-3; type: cell-based; conditions: UMUC3, 72 h, 3 days incubation, CellTiter-Glo 2.0
Protocol: In this assay, the growth inhibitory activity of Compound (1) in human bladder carcinoma cell lines RT4, RT112/84, and UM-UC-3 was measured. RT4 and RT112/84 cells were maintained in a RPMI-1640 (FUJIFILM Wako Pure Chemical Corporation, 189-02025) medium containing 10% fetal bovine serum (FBS: SIGMA Life Science, 172012-500ML), and penicillin and streptomycin (FUJIFILM Wako Pure Chemical Corporation, 168-23191) in a 5% CO2 incubator (37° C.). UM-UC-3 cells were maintained in an E-MEM (FUJIFILM Wako Pure Chemical Corporation, 051-07615) medium containing 10% FBS, 1 mM Sodium Pyruvate (FUJIFILM Wako Pure Chemical Corporation, 190-14881), and penicillin and streptomycin in a 5% CO2 incubator (37° C.). To each well of a 96 well plate (Coming, 3904), 90 μL of each cell suspension adjusted to a concentration of 5.55×10^3 cells/mL (RT4 or UM-UC-3) or 3.33×10^4 cells/mL (RT112/84) with the culture medium was added, and the cells were incubated overnight in a 5% CO2 incubator (37° C.). On the next day, 10 μL of Compound (1) in three-fold dilution series suspended in the culture medium was added to each well, and the resultant was incubated for 3 days in a 5% CO2incubator (37° C.). Then, cell viability was determined by CellTiter-Glo® 2.0 Assay (Promega Corporation, G9243) with ARVO-X4 Multimode Plate Reader (Perkin-Elmer, Wellesley, MA). […]

[3] = tested on: human synovial sarcoma cell line HS-SY-II xenograft; test: HS-SY-II xenograft model as monotherapy (FIG. 22); type: in vivo, nude mice
Protocol: A human synovial sarcoma cell line HS-SY-II, which had been cultured in a DMEM containing 10% FBS, and penicillin-streptomycin, was adjusted to a concentration of 1×10^8 cells/mL with 50% Geltrex (Thermo Fisher Scientific) in Hanks' Balanced Salt Solution to prepare a cell suspension. The cell suspension was inoculated in a volume of 100 μL into a subcutaneous part of a right flank of nude mice, 5 weeks of ages (CAnN.Cg-Foxnlnu/CrlCrlj, female, Charles River Laboratories Japan Inc.). Thirty days after cell inoculation (Day 1), the shortest diameter and the longest diameter of a tumor in each mouse were measured by using an electronic digital caliper (Digimatic™ caliper, Mitutoyo Corporation), so as to calculate the volume of the tumor in accordance with the following calculation formulae: […]
On the basis of the volumes of tumors obtained on Day 1, the mice were grouped such that averages of the tumor volumes were substantially equal among the groups. The experiment was conducted on groups each consisting of six mice. Compound (1) was dissolved in DMSO and a solution was stored in the freezer before use. Immediately before the administration, the stock solution was diluted with saline. The test compound in saline was intravenously once-weekly administered at 90 μg/kg or 180 μg/kg for 2 weeks (on Day 1 and Day 8).

[4] = tested on: OSC-19 subcutaneous xenograft; test: Antitumor activity against OSC-19 subcutaneous xenograft as monotherapy; type: in vivo, nude mice; conditions: Q7Dx2
Protocol: A human squamous cell carcinoma of the head and neck (SCCHN) cell line OSC-19, which had been cultured in an DMEM/Ham's F-12 (1:1) medium containing 10% FBS, and penicillin and streptomycin, was adjusted to a concentration of 1×10^8 cells/ml with PBS to prepare a cell suspension, and the suspension was mixed with Matrigel™ (BD Bioscience, #366237) in a ratio of 1:1 to prepare a cell suspension in a concentration of 5×10^7 cell/mL. The cell suspension was inoculated in a volume of 100 μL into a subcutaneous part of a right flank of nude mice, 5 weeks of ages (CAnN.Cg-Foxnlnu/CrlCrlj, female, Charles River Laboratories Japan, Inc.). Six days after cell inoculation, the shortest diameter and the longest diameter of a tumor in each mouse were measured by using an electronic digital caliper (Digimatic™ caliper, Mitutoyo Corporation), so as to calculate the volume of the tumor in accordance with the following calculation formulae: […]
On the basis of the volumes of tumors obtained on the first day of administration, the mice were grouped such that averages of the tumor volumes were substantially equal among the groups. The experiment was conducted on groups each consisting of 6 mice. Test compound was dissolved in saline and intravenously administered at doses from 0.06 mg/kg to 0.18 mg/kg once a week for 2 weeks (Q7Dx2 schedule).

[5] = tested on: L-1210 Leukemia; conditions: cited from earlier work

Compound	antitumor activity [1]	IC50 [2]	antitumor effect ([3]; 90 μg/kg i.v. Day 1 and Day 8)	antitumor effect ([3]; 180 μg/kg i.v. Day 1 and Day 8)	Tumor Regression (%) ([4]; 0.06 mg/kg i.v.)	Tumor Regression (%) ([4]; 0.18 mg/kg i.v.)	activity against L-1210 Leukemia in vivo [5]
C=C1C[C@@H]2CC[C@@]34C[C@H]5O[C@H]6[C@@H](O3)[C@H]3O[C@H](CC[C@@H]3O[C@H]6C5O4)CC(=O)O[C@@H]3[C@@H](C)[C@@H]4O[C@@H]5C[C@]6(C[C@@H]7O[C@]8(C[C@H](C)[C@@H]9O[C@H](CN)[C@H](O)C[C@@H]9O8)C[C@H](C)[C@@H]7O6)O[C@@H]5C[C@@H]4O[C@H]3C[C@H]3O[C@@H](CC[C@@H]1O2)C[C@@H](C)C3=C (stereo in doubt) [Compound (1)]	tumor growth delay	0.512 nM	tumor growth delay	tumor regression	59%	90%	
C=C1C[C@@H]2CC[C@@]34C[C@H]5O[C@H]6[C@@H](O3)[C@H]3O[C@H](CC[C@@H]3O[C@H]6[C@H]5O4)CC(=O)O[C@@H]3[C@@H](C)[C@@H]4O[C@@H]5C[C@]6(C[C@@H]7O[C@]8(C[C@H](C)[C@@H]9O[C@H]([C@@H](O)C[C@@H](O)CO)C[C@@H]9O8)C[C@H](C)[C@@H]7O6)O[C@@H]5C[C@@H]4O[C@H]3C[C@H]3O[C@@H](CC[C@@H]1O2)C[C@@H](C)C3=C [Halichondrin B, reference compound]							highly active
